Measurements from patent publication US8853230B2, “Inhibitors of JAK” (Portola Pharmaceuticals, Inc., priority 2009, dated 2014).

Columns and labels:
Assay type in all cases: biochemical
JAK1 = target: T1, JAK1 (Homo sapiens, UniProt P23458); assay: Z'-LYTE kinase assay, JAK1 tyrosine phosphorylation activity; conditions: read-out: JAK 1 IC50
T1 construct: 5 μl of catalytic domain recombinant Kinase enzyme+Tyr peptide substrate (Invitrogen, Calif.); purchased Invitrogen
How it was run: (§1)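 Catalytic-domain recombinant enzymes phosphorylate a coumarin/fluorescein-labelled Tyr6 peptide for 1 h at room temperature in the presence of ATP and compound (1% DMSO). Development Reagent then cleaves non-phosphorylated peptide over 1 h, and emission ratio 445/520 nm (ex 400 nm) gives percent phosphorylation; IC50 by 4-parameter logistic model.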

TYK2 = target: T2, TYK2 (Homo sapiens, UniProt P29597); assay: Z'-LYTE kinase assay, TYK2 tyrosine phosphorylation activity
T2 construct: 5 μl of catalytic domain recombinant Kinase enzyme+Tyr peptide substrate (Invitrogen, Calif.); purchased Invitrogen
T2 sequence (P29597 897-1176 limits assumed): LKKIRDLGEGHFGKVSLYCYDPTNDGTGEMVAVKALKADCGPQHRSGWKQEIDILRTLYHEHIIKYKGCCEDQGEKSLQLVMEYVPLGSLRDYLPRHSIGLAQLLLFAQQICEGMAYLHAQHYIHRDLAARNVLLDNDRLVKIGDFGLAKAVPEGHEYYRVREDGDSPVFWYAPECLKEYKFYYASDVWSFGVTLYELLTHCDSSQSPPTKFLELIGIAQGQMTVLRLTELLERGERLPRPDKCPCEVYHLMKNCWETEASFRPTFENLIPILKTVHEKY
How it was run: as §1

Syk = Syk (Homo sapiens, UniProt P43405); assay: Syk IC50 (Table 1; method not given)
JAK3 = target: T3, JAK3 (Homo sapiens, UniProt P52333); assay: Z'-LYTE kinase assay, JAK3 tyrosine phosphorylation activity
T3 construct: 5 μl of catalytic domain recombinant Kinase enzyme+Tyr peptide substrate (Invitrogen, Calif.); purchased Invitrogen
T3 sequence (P52333 822-1111 limits assumed): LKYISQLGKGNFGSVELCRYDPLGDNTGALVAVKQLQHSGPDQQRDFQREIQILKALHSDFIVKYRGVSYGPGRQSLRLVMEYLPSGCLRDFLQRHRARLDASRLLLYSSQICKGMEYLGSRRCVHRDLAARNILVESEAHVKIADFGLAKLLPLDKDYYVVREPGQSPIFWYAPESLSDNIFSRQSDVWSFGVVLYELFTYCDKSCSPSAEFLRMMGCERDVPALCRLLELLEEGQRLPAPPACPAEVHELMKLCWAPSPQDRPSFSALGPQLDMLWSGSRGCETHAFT
How it was run: as §1

JAK2 = target: T4, JAK2 (Homo sapiens, UniProt O60674); assay: Z'-LYTE kinase assay, JAK2 tyrosine phosphorylation activity
T4 construct: 5 μl of catalytic domain recombinant Kinase enzyme+Tyr peptide substrate (Invitrogen, Calif.); purchased Invitrogen
T4 sequence (O60674 849-1124 limits assumed): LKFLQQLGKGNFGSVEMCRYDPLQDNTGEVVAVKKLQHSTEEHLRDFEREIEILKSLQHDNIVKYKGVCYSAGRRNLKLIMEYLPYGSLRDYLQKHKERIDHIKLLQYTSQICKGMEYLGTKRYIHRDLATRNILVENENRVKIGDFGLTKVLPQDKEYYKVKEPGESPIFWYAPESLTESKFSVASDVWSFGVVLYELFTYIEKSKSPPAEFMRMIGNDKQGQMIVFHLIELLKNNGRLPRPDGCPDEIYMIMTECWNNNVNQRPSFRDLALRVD
How it was run: as §1

T1 sequence (P23458 875-1153 limits assumed): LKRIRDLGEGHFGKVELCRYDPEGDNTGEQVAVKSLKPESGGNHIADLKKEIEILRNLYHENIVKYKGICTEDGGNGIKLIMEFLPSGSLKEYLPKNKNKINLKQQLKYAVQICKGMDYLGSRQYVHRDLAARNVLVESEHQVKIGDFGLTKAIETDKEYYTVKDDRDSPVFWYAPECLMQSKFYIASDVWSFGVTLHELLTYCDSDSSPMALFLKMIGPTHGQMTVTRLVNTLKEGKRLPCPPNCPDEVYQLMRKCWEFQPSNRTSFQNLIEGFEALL

Row | Compound | IC50 (JAK1) [nM] | IC50 (TYK2) [nM] | IC50 (Syk) [nM] | IC50 (JAK3) [nM] | IC50 (JAK2) [nM]
1 | CC(=O)Nc1cccc(Nc2ncc(C(N)=O)c(NCC(=O)N3CCCC3)n2)c1 [Example 65, 2-(3-acetamidophenylamino)-4-(2-oxo-2-(pyrrolidin-1-yl)ethylamino)pyrimidine-5-carboxamide] | > 1000 | 10 to 100 | > 1000 | 10 to 100 | 100 to 1000
2 | CC(=O)Nc1cccc(Nc2ncc(C(N)=O)c(NCCN3CCOCC3)n2)c1 [Example 80, 2-(3-acetamidophenylamino)-4-(2-morpholinoethylamino)pyrimidine-5-carboxamide] | 100 to 1000 | 10 to 100 | > 1000 | 10 to 100 | 100 to 1000
3 | CC(=O)Nc1cccc(Nc2ncc(C(N)=O)c(NCc3ccc(C)cc3)n2)c1 [Example 67, 2-(3-acetamidophenylamino)-4-(4-methylbenzylamino)pyrimidine-5-carboxamide] | 100 to 1000 | – | > 1000 | 10 to 100 | 100 to 1000
4 | CC(=O)Nc1cccc(Nc2ncc(C(N)=O)c(N[C@H](CO)Cc3ccccc3)n2)c1 [Example 76, (S)-2-(3-acetamidophenylamino)-4-(1-hydroxy-3-phenylpropan-2-ylamino)pyrimidine-5-carboxamide] | 100 to 1000 | 10 to 100 | > 1000 | 10 to 100 | 10 to 100
5 | CN(C)[C@@H]1CCN(C(=O)Nc2cccc(Nc3cc(NCc4cccc(F)c4)c(C(N)=O)cn3)c2)C1 [Example 306, (R)-6-(3-(3-(dimethylamino)pyrrolidine-1-carboxamido)phenylamino)-4-(3-fluorobenzylamino)nicotinamide] | 100 to 1000 | – | > 1000 | < 1 | 10 to 100
6 | COCC(=O)Nc1cccc(Nc2ncc(C(N)=O)c(NCc3ccc(Cl)cc3)n2)c1 [Example 45, 4-(4-chlorobenzylamino)-2-(3-(2-methoxyacetamido)phenylamino)pyrimidine-5-carboxamide] | > 1000 | – | > 1000 | 100 to 1000 | 100 to 1000
7 | COCC(=O)Nc1cccc(Nc2ncc(C(N)=O)c(N[C@@H](C)c3ccccc3)n2)c1 [Example 42, (S)-2-(3-(2-methoxyacetamido)phenylamino)-4-(1-phenylethylamino)pyrimidine-5-carboxamide] | 100 to 1000 | – | > 1000 | 100 to 1000 | 100 to 1000
8 | CC(=O)Nc1cccc(Nc2ncc(C(N)=O)c(N[C@@H](C)C(N)=O)n2)c1 [Example 85, (S)-2-(3-acetamidophenylamino)-4-(1-amino-1-oxopropan-2-ylamino)pyrimidine-5-carboxamide] | 100 to 1000 | 10 to 100 | > 1000 | 10 to 100 | 100 to 1000
9 | CC(=O)Nc1cccc(Nc2ncc(C(N)=O)c(NC[C@H](C)O)n2)c1 [Example 82, (S)-2-(3-acetamidophenylamino)-4-(2-hydroxypropylamino)pyrimidine-5-carboxamide] | 100 to 1000 | 10 to 100 | 100 to 1000 | 10 to 100 | 10 to 100
10 | CC(=O)Nc1cccc(Nc2ncc(C(N)=O)c(NC[C@@H](O)c3ccccc3)n2)c1 [Example 48, (S)-2-(3-acetamidophenylamino)-4-(2-hydroxy-2-phenylethylamino)pyrimidine-5-carboxamide] | 100 to 1000 | – | > 1000 | 1 to 10 | 10 to 100
11 | CC(=O)Nc1cccc(Nc2ncc(C(N)=O)c(NCCN3CCCC3)n2)c1 [Example 63, 2-(3-acetamidophenylamino)-4-(2-(pyrrolidin-1-yl)ethylamino)pyrimidine-5-carboxamide] | > 1000 | – | > 1000 | 100 to 1000 | > 1000
12 | CC(=O)Nc1cccc(Nc2ncc(C(N)=O)c(NC[C@H](O)c3ccccc3)n2)c1 [Example 49, (R)-2-(3-acetamidophenylamino)-4-(2-hydroxy-2-phenylethylamino)pyrimidine-5-carboxamide] | 100 to 1000 | – | 100 to 1000 | 1 to 10 | 10 to 100

More lines, now with the values ahead:

Row | IC50 (JAK1) [nM] | IC50 (TYK2) [nM] | IC50 (Syk) [nM] | IC50 (JAK3) [nM] | IC50 (JAK2) [nM] | Compound
13 | 10 to 100 | 10 to 100 | > 1000 | 10 to 100 | 10 to 100 | COCC(=O)N(C)c1cccc(Nc2ncc(C(N)=O)c(NC(C)C)n2)c1 [Example 88, 4-(isopropylamino)-2-(3-(2-methoxy-N-methylacetamido)phenylamino)pyrimidine-5-carboxamide]
14 | 10 to 100 | 10 to 100 | > 1000 | 1 to 10 | 10 to 100 | COCC(=O)N(C)c1cccc(Nc2ncc(C(N)=O)c(NCc3ccccc3)n2)c1 [Example 90, 4-(benzylamino)-2-(3-(2-methoxy-N-methylacetamido)phenylamino)pyrimidine-5-carboxamide]
15 | 10 to 100 | 10 to 100 | 100 to 1000 | 10 to 100 | 10 to 100 | COCC(=O)Nc1cccc(Nc2ncc(C(N)=O)c(NCC(F)(F)F)n2)c1 [Example 6, 2-(3-(2-methoxyacetamido)phenylamino)-4-(2,2,2-trifluoroethylamino)pyrimidine-5-carboxamide]
16 | 10 to 100 | 10 to 100 | 100 to 1000 | 1 to 10 | 10 to 100 | COC(CNc1nc(Nc2cccc(NC(C)=O)c2)ncc1C(N)=O)c1ccccc1 (stereo not drawn) [Example 84, 2-(3-acetamidophenylamino)-4-(2-methoxy-2-phenylethylamino)pyrimidine-5-carboxamide]
17 | 10 to 100 | 10 to 100 | 100 to 1000 | 10 to 100 | 10 to 100 | COC(=O)Nc1cccc(Nc2ncc(C(N)=O)c(NCC(F)(F)F)n2)c1 [Example 4, Methyl 3-(5-carbamoyl-4-(2,2,2-trifluoroethylamino)pyrimidin-2-ylamino)phenylcarbamate]
18 | 100 to 1000 | 10 to 100 | > 1000 | 10 to 100 | 100 to 1000 | CC(=O)Nc1cccc(Nc2ncc(C(N)=O)c(NC[C@@H](O)CO)n2)c1 [Example 83, (R)-2-(3-acetamidophenylamino)-4-(2,3-dihydroxypropylamino)pyrimidine-5-carboxamide]
19 | 10 to 100 | 1 to 10 | 100 to 1000 | 1 to 10 | 10 to 100 | CC(=O)Nc1cccc(Nc2ncc(C(N)=O)c(NCC(F)(F)F)n2)c1 [Example 7, 2-(3-acetamidophenylamino)-4-(2,2,2-trifluoroethylamino)pyrimidine-5-carboxamide]
20 | 100 to 1000 | 100 to 1000 | > 1000 | 100 to 1000 | 100 to 1000 | CC(=O)Nc1cccc(Nc2ncc(C(N)=O)c(N[C@@H]3CCCNC3)n2)c1 [Example 66, (R)-2-(3-acetamidophenylamino)-4-(piperidin-3-ylamino)pyrimidine-5-carboxamide]
21 | 100 to 1000 | 10 to 100 | > 1000 | 10 to 100 | 10 to 100 | CC(=O)N(C)c1cccc(Nc2ncc(C(N)=O)c(NC(C)C)n2)c1 [Example 77, 4-(isopropylamino)-2-(3-(N-methylacetamido)phenylamino)pyrimidine-5-carboxamide]
22 | 10 to 100 | 10 to 100 | > 1000 | 1 to 10 | 10 to 100 | CC(=O)N(C)c1cccc(Nc2ncc(C(N)=O)c(NCc3ccccc3)n2)c1 [Example 79, 4-(benzylamino)-2-(3-(N-methylacetamido)phenylamino)pyrimidine-5-carboxamide]
23 | 10 to 100 | – | > 1000 | 10 to 100 | 100 to 1000 | CC(=O)Nc1cccc(Nc2ncc(C(N)=O)c(N[C@@H](CO)CC(C)C)n2)c1 [Example 62, (R)-2-(3-acetamidophenylamino)-4-(1-hydroxy-4-methylpentan-2-ylamino)pyrimidine-5-carboxamide]
24 | 10 to 100 | – | 100 to 1000 | 1 to 10 | 10 to 100 | CN(C)C(=O)Nc1cccc(Nc2ncc(C(N)=O)c(NC3CCCC3)n2)c1 [Example 35, 4-(cyclopentylamino)-2-(3-(3,3-dimethylureido)phenylamino)pyrimidine-5-carboxamide]
25 | 10 to 100 | – | 100 to 1000 | 1 to 10 | 10 to 100 | NC(=O)c1cnc(Nc2cccc(NC(=O)C3CC3)c2)nc1NC1CCCC1 [Example 19, 4-(cyclopentylamino)-2-(3-(cyclopropanecarboxamido)phenylamino)pyrimidine-5-carboxamide]
26 | 10 to 100 | – | 100 to 1000 | 1 to 10 | 10 to 100 | CNC(=O)Nc1cccc(Nc2ncc(C(N)=O)c(NC3CCCC3)n2)c1 [Example 34, 4-(cyclopentylamino)-2-(3-(3-methylureido)phenylamino)pyrimidine-5-carboxamide]
27 | 10 to 100 | – | 100 to 1000 | 1 to 10 | 10 to 100 | COCC(=O)Nc1cccc(Nc2ncc(C(N)=O)c(NC3CCC3)n2)c1 [Example 55, 4-(cyclobutylamino)-2-(3-(2-methoxyacetamido)phenylamino)pyrimidine-5-carboxamide]
